# Several values for one entry are separate records, joined by “and”; a condition that tells them apart may be missing. Identical values can stand only once.
# Key:
# Escherichia coli 2017 = assay: Combined antibiotic therapy of Escherichia coli infection in mice (Example 5); type: in vivo, mice infected with Escherichia coli 2017
# Excerpt: (§1) For example, using Escherichia coli 2017 as the infecting agent, sodium phosphonomycin was titrated alone and in the presence 5 and also in the presence of 0.5γtetracycline, while tetracycline was titrated alone and in the presence of 50γ, and also in the presence of 5γof sodium phosphonomycin. The two drugs were given by the subcutaneous route at separate sites on the ventral surface of the mouse. Such therapy was given only at the time of infection for the Escherichia coli and Pseudomonas aeruginosa tests but both at the time of infection and 6 hours later for all other tests. Infection was given intraperitoneally using broth suspensions of the test organism.
# [1] = tested on: Klebsiella pneumoniae "B"; assay: Combined antibiotic therapy of experimental infection in mice (Example 5); type: in vivo, mice infected with Klebsiella pneumoniae "B"; conditions: 7 LD50
# Excerpt: as §1
# [2] = tested on: Streptococcus pyogenes 3009; assay: as above; type: in vivo, mice infected with Streptococcus pyogenes 3009; conditions: 6 LD50
# Excerpt: as §1
# pathogenic bacteria = assay: in vitro combination tests with various pathogens (general description); type: cell-based
# Excerpt: Other experimental results have shown that novobiocin, chlortetracycline and sulfisoxazole are potentiated when combined with phosphonomycin and tested with various strains of pathogenic bacteria.
# Pseudomonas aeruginosa = assay: MIC by two-fold serial broth dilution, alone and in combination (Example 1); type: cell-based
# Procedure: (§2) The MIC (minimum inhibitory concentration) of phosphonomycin and each of the other antibiotics by itself was determined before the combination synergy experiment was begun, as follows: 2 ml. of a double strength solution in sterile distilled water of the highest strength to be tested (usually 1000γ) was added to a tube of double strength nutrient broth (NB) and mixed thoroughly. Two-fold serial dilutions were then made by transferring 2 ml. to the next tube (1 × NB) and so on for approximately 12 tubes. The tubes were inoculated with one drop each of a 1:50 dilution of a culture adjusted to a Lumetron 60 reading in NB + 0.2% yeast extract so as to provide a concentration of cells of approximately 25,000/ml. The tubes were then incubated at 37°C. and examined for growth at 24, 48 and 72 hours.
# (§3) In the combination experiment, the MIC value obtained as described above was used as approximately the midpoint of the range to be tested for each of the two antibiotics of the combination. In a manner similar to the above, two-fold dilutions of the first substance in the combination were made except that 1.8 ml. volumes were used and a 2.2 × strength solution of both the antibiotic and the NB were made. The second antibiotic of the combination was added to duplicate rows of serial dilutions of the first substance as follows: 0.2 ml. in NB of a [formula] and a [formula] respectively, of the second substance was added to each tube in a row of serial dilutions of the first antibiotic. The final concentration that resulted enabled the determination of the effect of both MIC/4 and MIC/8 of each substance in the presence of from approximately 32 MIC to [formula] of the other. Inocula were added as in the initial single MIC experiment.
# Staphylococcus aureus [3] = assay: as above; type: cell-based
# Procedure: as §2, §3
# Pseudomonas stutzeri = assay: as above; type: cell-based
# Procedure: as §2, §3
# [4] = tested on: Pseudomonas aeruginosa 3210; assay: Combined antibiotic therapy of experimental infection in mice (Example 5); type: in vivo, mice infected with Pseudomonas aeruginosa 3210; conditions: 10 LD50
# Excerpt: as §1
# [5] = tested on: test organisms of Example 1; assay: Summary of the twelve combination synergy tests (Example 1); type: cell-based
# Procedure: as §2
# In the combination experiment, the MIC value obtained as described above was used as approximately the midpoint of the range to be tested for each of the two antibiotics of the combination. In a manner similar to the above, two-fold dilutions of the first substance in the combination were made except that 1.8 ml. volumes were used and a 2.2 × strength solution of both the antibiotic and the NB were made. […]
# Staphylococcus aureus [6] = assay: criss-cross MIC method in nutrient broth (Example 2); type: cell-based; conditions: 2nd substance chloramphenicol (CLM)
# Procedure: This method involved the simultaneous determination of the MIC (minimum inhibitory concentration) of each member of a pair of antibiotics and of combinations of the two in nutrient broth (NB) containing 0.2% yeast extract (YE). Serial two-fold dilutions were made throughout the experiment, and the starting inoculum consisted of approximately 25,000 cells/ml. of Staphylococcus aureus. Incubation was at 37°C. for 24 hours. Identical experiments were performed on two different days.
# Streptococcus faecalis = assay: MIC by two-fold serial broth dilution, alone and in combination (Example 1); type: cell-based; conditions: 2nd substance novobiocin; MIC/2 instead of ≤ MIC/4
# bacterial cell wall = assay: mode of action on bacteria; type: cell-based
# Excerpt: In accordance with one embodiment of this invention, pathogenic bacteria are controlled by concomitantly contacting these pathogens with phosphonomycin and a bacteriostatic chemotherapeutic agent. The action of the phosphonomycin is to potentiate, augment or synergise the activity of the bacteriostatic agent. This potentiation of the bacteriostats is indeed unexpected since the bacteriostatic agents have an entirely different mode of action than phosphonomycin. […] Thus, phosphonomycin is indeed unique among antibiotics in that it is capable of potentiating the important bacteriostatic chemotherapeutic agents.
# [7] = chloramphenicol repeat test, 7 LD50, phosphonomycin titrated, chloramphenicol constant 5
# [8] = chloramphenicol repeat test, 7 LD50, phosphonomycin titrated, chloramphenicol constant 50
# [9] = chloramphenicol test 1, 9 LD50, phosphonomycin titrated, chloramphenicol constant 3
# [10] = chloramphenicol test 1, 9 LD50, phosphonomycin titrated, chloramphenicol constant 30
# [11] = tetracycline repeat test, 7 LD50, phosphonomycin titrated, tetracycline constant 1
# [12] = tetracycline repeat test, 7 LD50, phosphonomycin titrated, tetracycline constant 10
# [13] = tetracycline test 1, 9 LD50, alone
# [14] = tetracycline test 1, 9 LD50, phosphonomycin titrated, tetracycline constant 0.5
# [15] = tetracycline test 1, 9 LD50, phosphonomycin titrated, tetracycline constant 5
# [16] = alone, therapy at 0 and 6 hours, phosphonomycin as sodium salt
# [17] = phosphonomycin titrated, novobiocin constant 100
# [18] = phosphonomycin titrated, novobiocin constant 1000
smiles,measurement,setting,value
"C[C@@H]1O[C@@H]1P(=O)(O)O [Phosphonomycin, (-) (cis-1,2-epoxypropyl)phosphonic acid]",% ED50,"Escherichia coli 2017; chloramphenicol repeat test, 7 LD50, alone",100%
same,s.c. ED50,"Escherichia coli 2017; chloramphenicol repeat test, 7 LD50, alone, single dose at 0 hour, phosphonomycin as sodium salt",276 µg
same,% ED50,"Escherichia coli 2017; chloramphenicol repeat test, 7 LD50, chloramphenicol titrated, phosphonomycin constant 5",2%
same,% ED50,"Escherichia coli 2017; chloramphenicol repeat test, 7 LD50, chloramphenicol titrated, phosphonomycin constant 50",19%
same,% ED50,Escherichia coli 2017; [7],33%
same,s.c. ED50,Escherichia coli 2017; [7],92 µg
same,% ED50,Escherichia coli 2017; [8],9%
same,s.c. ED50,Escherichia coli 2017; [8],26 µg
same,% ED50,"Escherichia coli 2017; chloramphenicol test 1, 9 LD50, alone",100%
same,s.c. ED50,"Escherichia coli 2017; chloramphenicol test 1, 9 LD50, alone, single dose at 0 hour, phosphonomycin as sodium salt",905 µg
same,% ED50,"Escherichia coli 2017; chloramphenicol test 1, 9 LD50, chloramphenicol titrated, phosphonomycin constant 10",1%
same,% ED50,"Escherichia coli 2017; chloramphenicol test 1, 9 LD50, chloramphenicol titrated, phosphonomycin constant 100",11%
same,% ED50,Escherichia coli 2017; [9],100%
same,s.c. ED50,Escherichia coli 2017; [9],905 µg
same,% ED50,Escherichia coli 2017; [10],55%
same,s.c. ED50,Escherichia coli 2017; [10],500 µg
same,% ED50,"Escherichia coli 2017; tetracycline repeat test, 7 LD50, alone",100%
same,s.c. ED50,"Escherichia coli 2017; tetracycline repeat test, 7 LD50, alone, single dose at 0 hour, phosphonomycin as sodium salt",350 µg
same,% ED50,Escherichia coli 2017; [11],108%
same,s.c. ED50,Escherichia coli 2017; [11],380 µg
same,% ED50,Escherichia coli 2017; [12],111%
same,s.c. ED50,Escherichia coli 2017; [12],390 µg
same,% ED50,"Escherichia coli 2017; tetracycline repeat test, 7 LD50, tetracycline titrated, phosphonomycin constant 0.5",2%
same,% ED50,"Escherichia coli 2017; tetracycline repeat test, 7 LD50, tetracycline titrated, phosphonomycin constant 50",14%
same,% ED50,Escherichia coli 2017; [13],100%
same,"% ED50, Combined %",Escherichia coli 2017; [13],100%
same,s.c. ED50,"Escherichia coli 2017; tetracycline test 1, 9 LD50, alone, single dose at 0 hour, phosphonomycin as sodium salt",1000 µg
same,% ED50,Escherichia coli 2017; [14],100%
same,s.c. ED50,Escherichia coli 2017; [14],1000 µg
same,% ED50,Escherichia coli 2017; [15],43%
same,s.c. ED50,Escherichia coli 2017; [15],427 µg
same,% ED50,"Escherichia coli 2017; tetracycline test 1, 9 LD50, tetracycline titrated, phosphonomycin constant 5",.5%
same,% ED50,"Escherichia coli 2017; tetracycline test 1, 9 LD50, tetracycline titrated, phosphonomycin constant 50",5%
same,% ED50,[1]; alone,100%
same,s.c. ED50,[1]; [16],2130 µg
same,% ED50,[1]; [17],52%
same,s.c. ED50,[1]; [17],1110 µg
same,% ED50,[1]; [18],14%
same,s.c. ED50,[1]; [18],298 µg
same,% ED50,[2]; alone,100%
same,"% ED50, Combined %",[2]; alone,100%
same,s.c. ED50,[2]; [16],1400 µg
same,% ED50,"[2]; tetracycline titrated, phosphonomycin constant 500",64%
same,% ED50,"[2]; tetracycline titrated, phosphonomycin constant 1000",71%
same,tests in which phosphonomycin potentiated the effect of chloramphenicol,"pathogenic bacteria; almost 200 pathogenic bacteria, about 15,000 individual tests",88%
same,antagonism,pathogenic bacteria; between phosphonomycin and each of chloramphenicol and erythromycin,no antagonism
same,antagonism,pathogenic bacteria; various tests with human pathogens,does not exhibit any antagonism
same,synergism,"pathogenic bacteria; with chloramphenicol, erythromycin, tetracyclines, novobiocin and sulfisoxazole, inhibition at one quarter or less of MIC of each",acts synergistically
same,Phosphonomycin MIC in presence of ≤ MIC/4 of 2nd substance,Pseudomonas aeruginosa; 2nd substance erythromycin,12
same,Phosphonomycin MIC in presence of ≤ MIC/4 of 2nd substance,Pseudomonas aeruginosa; 2nd substance novobiocin,93.6
same,Phosphonomycin MIC in presence of ≤ MIC/4 of 2nd substance,Staphylococcus aureus [3]; 2nd substance erythromycin,24
same,Phosphonomycin MIC in presence of ≤ MIC/4 of 2nd substance,Staphylococcus aureus [3]; 2nd substance novobiocin,48
same,Phosphonomycin MIC in presence of ≤ MIC/4 of 2nd substance,Pseudomonas stutzeri; 2nd substance novobiocin,16
same,MIC,"Pseudomonas stutzeri; Stutzerimonas stutzeri, read-out: Phosphonomycin MIC",> 220 µg/mL
same,% ED50,[4]; alone,100%
same,s.c. ED50,"[4]; alone, therapy at 0 hour only, phosphonomycin as sodium salt",1420 µg
same,% ED50,[4]; [17],88%
same,s.c. ED50,[4]; [17],1250 µg
same,% ED50,[4]; [18],195%
same,s.c. ED50,[4]; [18],2760 µg
same,antagonism by the combination of antibiotics,[5],in no case was there any evidence of antagonism
same,tests in which potentiating effect of phosphonomycin is observed,[5],eight of the twelve tests
same,Phosphonomycin MIC in presence of MIC/4 of 2nd subst.,Staphylococcus aureus [6],15.6 µg/mL and 7.8 µg/mL
same,Phosphonomycin MIC in presence of 2nd substance,Streptococcus faecalis,24 µg/mL
same,mode of action,bacterial cell wall,bactericidal in action
same,spheroplasts,bacterial cell wall; certain bacterial strains exposed to the antibiotic,detection of spheroplasts

# — patent US3935309A, “Synergistic combinations of phosphonomycin and bacteriostatic agents” (Merck & Co., Inc., priority 1974, dated 1976)
